Laboratory results taken from patent US9249129B2, “Morpholino substituted urea derivatives as mTOR inhibitors” (CELLZOME LIMITED, priority 2010, dated 2016).
Like-named read-outs stand apart in the source and are kept apart here.

What was measured:
[1] = target: T1, DNA-dependent protein kinase (DNA-PK) (Homo sapiens, UniProt P78527); assay: kinobeads assay, DNA-PK (dot blot detection); assay type: binding
T1 construct: endogenous in cells; host or cells: Jurkat cells (ATCC TIB-152, clone E6-1), lysate
Method in brief: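 Jurkat cell lysate (5 mg/ml protein) was incubated with test compounds and kinobeads (immobilized phenylthiazole and phenylmorpholin-chromen ligands) for 2 h in the cold with shaking. Bead-bound kinase was SDS-eluted and quantified by antibody dot blot with infrared detection. IC50 values came from dose-response curves.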

PI3Kγ = target: T2, PI3Kγ (Homo sapiens, UniProt P48736); assay: kinobeads assay, PI3K gamma (dot blot detection); assay type: binding; settings: Table 4, read-out: Inhibition values (IC50) PI3Kg
T2 construct: endogenous in cells; host or cells: Jurkat cells (ATCC TIB-152) lysate, the only lysate described
T2 sequence (P48736 whole entry): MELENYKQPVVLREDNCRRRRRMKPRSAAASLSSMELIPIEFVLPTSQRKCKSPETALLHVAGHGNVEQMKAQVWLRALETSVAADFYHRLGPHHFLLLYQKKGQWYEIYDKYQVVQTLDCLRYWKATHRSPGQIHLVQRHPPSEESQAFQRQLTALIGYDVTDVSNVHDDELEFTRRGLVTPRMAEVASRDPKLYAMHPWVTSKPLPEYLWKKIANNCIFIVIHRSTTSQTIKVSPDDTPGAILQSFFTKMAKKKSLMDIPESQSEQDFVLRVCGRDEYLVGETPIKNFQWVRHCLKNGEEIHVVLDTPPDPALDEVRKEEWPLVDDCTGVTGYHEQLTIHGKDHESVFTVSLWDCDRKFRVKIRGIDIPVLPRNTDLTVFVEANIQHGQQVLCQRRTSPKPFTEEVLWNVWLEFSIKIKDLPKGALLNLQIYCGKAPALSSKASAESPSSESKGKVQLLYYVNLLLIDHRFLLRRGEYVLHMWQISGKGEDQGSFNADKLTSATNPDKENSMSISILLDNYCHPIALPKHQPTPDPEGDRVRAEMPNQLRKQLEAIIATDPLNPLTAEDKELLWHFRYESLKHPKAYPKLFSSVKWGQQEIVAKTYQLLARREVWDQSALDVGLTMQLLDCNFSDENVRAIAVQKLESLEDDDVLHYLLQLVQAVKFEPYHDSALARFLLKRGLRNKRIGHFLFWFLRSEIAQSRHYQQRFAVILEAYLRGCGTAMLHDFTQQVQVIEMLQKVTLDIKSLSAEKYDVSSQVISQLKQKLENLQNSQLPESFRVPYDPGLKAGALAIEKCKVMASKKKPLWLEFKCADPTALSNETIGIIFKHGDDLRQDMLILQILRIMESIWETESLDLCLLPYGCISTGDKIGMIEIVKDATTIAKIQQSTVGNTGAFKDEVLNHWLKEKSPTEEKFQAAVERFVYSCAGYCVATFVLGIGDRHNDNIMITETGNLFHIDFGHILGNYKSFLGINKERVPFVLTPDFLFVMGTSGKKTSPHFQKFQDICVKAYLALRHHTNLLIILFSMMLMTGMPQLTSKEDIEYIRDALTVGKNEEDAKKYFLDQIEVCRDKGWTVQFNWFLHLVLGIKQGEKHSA

[2] = Table 2, Jurkat cell lysate, read-out: Inhibition values (IC50) DNAPK
[3] = Table 4, read-out: Inhibition values (IC50) DNAPK

SMILES	IC50 [1, 2] [µM]	IC50 [1, 3] [µM]	IC50 (PI3Kγ) [µM]
CCNC(=O)Nc1ccc(-c2cc(-c3cc(F)ccc3S(C)(=O)=O)nc(N3CCOC[C@@H]3C)n2)cc1 [Example 2, (S)-1-ethyl-3-(4-(6-(5-fluoro-2-(methylsulfonyl)phenyl)-2-(3-methylmorpholino)pyrimidin-4-yl)phenyl)urea]	≥ 10	≥ 10	≥ 10
C[C@H]1COCCN1c1nc(-c2ccc(NC(=O)NC3CC3)cc2)cc(-c2ccccc2S(C)(=O)=O)n1 [Example 4, (S)-1-cyclopropyl-3-(4-(2-(3-methylmorpholino)-6-(2-(methylsulfonyl)phenyl)pyrimidin-4-yl)phenyl)urea]	≥ 10	≥ 10	≥ 10
C[C@H]1COCCN1c1cc(-c2ccccc2S(C)(=O)=O)nc(-c2ccc(NC(=O)NC3CC3)cc2)n1 [Example 6, (S)-1-cyclopropyl-3-(4-(4-(3-methylmorpholino)-6-(2-(methylsulfonyl)phenyl)pyrimidin-2-yl)phenyl)urea]	≥ 10	≥ 10	≥ 10
CCNC(=O)Nc1ccc(-c2cc(-c3ccccc3C#N)nc(N3CCOC[C@@H]3C)n2)cc1 [Example 8, (S)-1-(4-(6-(2-cyanophenyl)-2-(3-methylmorpholino)pyrimidin-4-yl)phenyl)-3-ethylurea]	≥ 10	≥ 10	
C[C@H]1COCCN1c1cc(-c2ccc(F)nc2)nc(-c2ccc(NC(=O)NC3CC3)cc2)n1 [Example 21, (S)-1-cyclopropyl-3-(4-(4-(6-fluoropyridin-3-yl)-6-(3-methylmorpholino)pyrimidin-2-yl)phenyl)urea]	≥ 10	≥ 10	≥ 10
C[C@H]1COCCN1c1cc(-c2cncc(F)c2)nc(-c2ccc(NC(=O)NC3CC3)cc2)n1 [Example 23, (S)-1-cyclopropyl-3-(4-(4-(5-fluoropyridin-3-yl)-6-(3-methylmorpholino)pyrimidin-2-yl)phenyl)urea]	≥ 10	≥ 10	≥ 10
C[C@H]1COCCN1c1nc(-c2ccc(NC(=O)NC3CC3)cc2)cc(-c2cc(F)ccc2S(C)(=O)=O)n1 [Example 40, (S)-1-cyclopropyl-3-(4-(6-(5-fluoro-2-(methylsulfonyl)phenyl)-2-(3-methylmorpholino)pyrimidin-4-yl)phenyl)urea]	≥ 10	≥ 10	≥ 10
C[C@H]1COCCN1c1nc(-c2ccc(NC(=O)NCCO)cc2)cc(-c2cc(F)ccc2S(C)(=O)=O)n1 [Example 41, (S)-1-(4-(6-(5-fluoro-2-(methylsulfonyl)phenyl)-2-(3-methylmorpholino)pyrimidin-4-yl)phenyl)-3-(2-hydroxyethyl)urea]	≥ 10	≥ 10	≥ 10
C[C@H]1COCCN1c1cc(-c2ccccn2)nc(-c2ccc(NC(=O)NC3CC3)cc2)n1 [Example 42, (S)-1-cyclopropyl-3-(4-(4-(3-methylmorpholino)-6-(pyridin-2-yl)pyrimidin-2-yl)phenyl)urea]	≥ 10	≥ 10	≥ 10
C[C@H]1COCCN1c1cc(-c2ccccn2)nc(-c2ccc(NC(=O)NCCO)cc2)n1 [Example 43, (S)-1-(2-hydroxyethyl)-3-(4-(4-(3-methylmorpholino)-6-(pyridin-2-yl)pyrimidin-2-yl)phenyl)urea]	≥ 10	≥ 10	≥ 10
C[C@H]1COCCN1c1nc(-c2ccc(NC(=O)NCCF)cc2)cc(-c2cc(F)ccc2S(C)(=O)=O)n1 [Example 44, (S)-1-(4-(6-(5-fluoro-2-(methylsulfonyl)phenyl)-2-(3-methylmorpholino)pyrimidin-4-yl)phenyl)-3-(2-fluoroethyl)urea]	≥ 10	≥ 10	≥ 10
C[C@H]1COCCN1c1nc(-c2ccc(NC(=O)NC3CC3)cc2)cc(-c2cccnc2S(C)(=O)=O)n1 [Example 46, (S)-1-cyclopropyl-3-(4-(2-(3-methylmorpholino)-6-(2-(methylsulfonyl)pyridin-3-yl)pyrimidin-4-yl)phenyl)urea]	≥ 10	≥ 10	≥ 10
C[C@H]1COCCN1c1nc(-c2ccc(NC(=O)NCC(F)F)cc2)cc(-c2cc(F)ccc2S(C)(=O)=O)n1 [Example 47, (S)-1-(2,2-difluoroethyl)-3-(4-(6-(5-fluoro-2-(methylsulfonyl)phenyl)-2-(3-methylmorpholino)pyrimidin-4-yl)phenyl)urea]	≥ 10	≥ 10	≥ 10
C[C@H]1COCCN1c1ccnc(-c2ccc(NC(=O)Nc3ccncc3)cc2)n1 [Example 60, (S)-1-(4-(4-(3-methylmorpholino)pyrimidin-2-yl)phenyl)-3-(pyridin-4-yl)urea]	≥ 10	≥ 10	≥ 10
O=C(Nc1ccncc1)Nc1ccc(-c2nccc(N3CC4CCC(C3)O4)n2)cc1 [Example 61, 1-(4-(4-(8-oxa-3-azabicyclo[3.2.1]octan-3-yl)pyrimidin-2-yl)phenyl)-3-(pyridin-4-yl)urea]	≥ 10	1 to 10	≥ 10
CS(=O)(=O)c1ccc(F)cc1-c1cc(-c2ccc(NC(=O)NCCO)cc2)nc(N2CCOCC2)n1 [Example 62, 1-(4-(6-(5-fluoro-2-(methylsulfonyl)phenyl)-2-morpholinopyrimidin-4-yl)phenyl)-3-(2-hydroxyethyl)urea]	≥ 10	≥ 10	≥ 10
C[C@H]1COCCN1c1nc(-c2ccc(NC(=O)NCCCO)cc2)cc(-c2cc(F)ccc2S(C)(=O)=O)n1 [Example 64, (S)-1-(4-(6-(5-fluoro-2-(methylsulfonyl)phenyl)-2-(3-methylmorpholino)pyrimidin-4-yl)phenyl)-3-(3-hydroxypropyl)urea]	≥ 10	≥ 10	≥ 10
C[C@H]1COCCN1c1nc(-c2ccc(NC(=O)N[C@H]3CCC[C@@H]3O)cc2)cc(-c2cc(F)ccc2S(C)(=O)=O)n1 [Example 76, 1-(4-(6-(5-fluoro-2-(methylsulfonyl)phenyl)-2-((S)-3-methylmorpholino)pyrimidin-4-yl)phenyl)-3-((1S,2S)-2-hydroxycyclopentyl)urea]		≥ 10	≥ 10
